Assay results taken from ChEMBL document CHEMBL1201862, “PubChem BioAssay data set” (2004).
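Briefly, cells in 96-well plates were exposed to five compound concentrations for 48 h, and endpoints were estimated by linear interpolation. GI50 = concentration required for 50% inhibition of growth.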 Active and inactive are the calls of the source. No stated cut-off is given here; in the data, active = GI50 up to about 1.1 µM and inactive = higher.

Columns and labels:
Assay in all cases: DTP human tumour cell line panel, 48 h
[1] = tested on: UACC-257
[2] = tested on: HCC 2998
[3] = tested on: HOP-62
[4] = tested on: HCT-15
[5] = tested on: OVCAR-4
[6] = tested on: COLO 205
[7] = tested on: Malme-3M
[8] = tested on: IGROV-1
[9] = tested on: EKVX
[10] = tested on: U-251
[11] = tested on: SNB-19
[12] = tested on: A549
[13] = tested on: A498
[14] = tested on: DLD-1
[15] = tested on: SF-268
[16] = tested on: SK-MEL-2
[17] = tested on: RPMI-8226
[18] = tested on: Hs-578T
[19] = tested on: PC-3
[20] = tested on: T47D

SMILES | GI50 [1] | GI50 [2] | GI50 [3] | GI50 [4] | GI50 [5] | GI50 [6] | GI50 [7] | GI50 [8] | GI50 [9] | GI50 [10] | GI50 [11] | GI50 [12] | GI50 [13] | GI50 [14] | GI50 [15] | GI50 [16] | GI50 [17] | GI50 [18] | GI50 [19] | GI50 [20]
CN(C)c1ccc(/C=c2\sc3nc4ccccc4n3c2=O)cc1 | > 100 µM (inactive) | > 100 µM (inactive) | > 100 µM (inactive) | > 100 µM | > 100 µM (inactive) | > 100 µM (inactive) | > 100 µM (inactive) | > 100 µM (inactive) | > 100 µM (inactive) | > 100 µM (inactive) | > 100 µM (inactive) | > 100 µM (inactive) | > 100 µM (inactive) | > 100 µM (inactive) | > 100 µM (inactive) | > 100 µM (inactive) |  |  |  | 
COC(=O)[C@@H]1C(=O)O[C@@H](c2ccc3c(c2)OCO3)[C@@H]1C(=O)OC.COC(=O)[C@H]1C(=O)O[C@@H](c2ccc3c(c2)OCO3)[C@@H]1C(=O)OC | > 100 µM (inactive) | > 100 µM (inactive) | > 100 µM (inactive) | > 100 µM | > 100 µM (inactive) | > 100 µM (inactive) | > 100 µM (inactive) | > 100 µM (inactive) | > 100 µM (inactive) | > 100 µM (inactive) | > 100 µM (inactive) | > 100 µM (inactive) | > 100 µM (inactive) | > 100 µM (inactive) | > 100 µM (inactive) |  | > 100 µM (inactive) |  |  | 
OCc1ccc(-c2ccc(-c3ccc(CO)s3)o2)s1 | 0.0254 µM (active) | 0.394 µM (active) | 0.103 µM (active) | 8.09 µM | 0.212 µM (active) | 0.335 µM (active) | 57 µM (inactive) | 0.0373 µM (active) | 26.3 µM (inactive) | 0.0646 µM (active) | 28.8 µM (inactive) | 2.36 µM (inactive) | 0.0151 µM (active) | 6.05 µM (inactive) | 49 µM (inactive) | 23.9 µM (inactive) | 2.99 µM (inactive) | 27.7 µM (inactive) | 44.5 µM (inactive) | 0.31 µM (active)
CCN(CC)CC(C(C)=O)C(c1ccccc1)c1c(O)c2ccccc2oc1=O (configuration not stated) | 63.1 µM (inactive) | > 100 µM (inactive) | > 100 µM (inactive) | > 100 µM | > 100 µM (inactive) | > 100 µM (inactive) | > 100 µM (inactive) | > 100 µM (inactive) | > 100 µM (inactive) | > 100 µM (inactive) | > 100 µM (inactive) | > 100 µM (inactive) | > 100 µM (inactive) | > 100 µM (inactive) | > 100 µM (inactive) | > 100 µM (inactive) | > 100 µM (inactive) |  |  | 
O=C1OC(/C=C/c2ccccc2)C(=O)C1=O (configuration not stated) | > 100 µM (inactive) | > 100 µM (inactive) | > 100 µM (inactive) | > 100 µM | > 100 µM (inactive) | > 100 µM (inactive) | > 100 µM (inactive) | > 100 µM (inactive) | > 100 µM (inactive) | > 100 µM (inactive) | > 100 µM (inactive) | > 100 µM (inactive) | > 100 µM (inactive) | > 100 µM (inactive) | > 100 µM (inactive) | > 100 µM (inactive) | > 100 µM (inactive) |  |  | 
COCCCCCC(=O)CP(=O)(OC)OC | > 100 µM (inactive) | > 100 µM (inactive) | > 100 µM (inactive) | > 100 µM |  | > 100 µM (inactive) | > 100 µM (inactive) | > 100 µM (inactive) | > 100 µM (inactive) | > 100 µM (inactive) | > 100 µM (inactive) | > 100 µM (inactive) | > 100 µM (inactive) | > 100 µM (inactive) | > 100 µM (inactive) | > 100 µM (inactive) | > 100 µM (inactive) |  |  | 
COc1ccc(C2NC(c3ccc(OC)cc3)C(C)C(=O)C2C)cc1 (configuration not stated) | > 100 µM (inactive) | > 100 µM (inactive) | > 100 µM (inactive) | > 100 µM | > 100 µM (inactive) | > 100 µM (inactive) | > 100 µM (inactive) | > 100 µM (inactive) | 67 µM (inactive) | > 100 µM (inactive) | > 100 µM (inactive) |  | > 100 µM (inactive) | > 100 µM (inactive) | > 100 µM (inactive) | > 100 µM (inactive) | 34.2 µM (inactive) |  |  | 
c1ccc(/N=C2\c3ccccc3C3=NCCCN32)cc1 | 40.4 µM (inactive) | 49.7 µM (inactive) | 67.6 µM (inactive) | 35.6 µM | 42.2 µM (inactive) | 62.1 µM (inactive) | 62.8 µM (inactive) | 59.8 µM (inactive) | 30.6 µM (inactive) | > 100 µM (inactive) | 85.9 µM (inactive) | 42.3 µM (inactive) | 43.2 µM (inactive) | 39.2 µM (inactive) | 81.5 µM (inactive) | 86.5 µM (inactive) | 30.5 µM (inactive) |  |  | 
CCCCCCCCCCCCCCCCOC(=O)C(C(=O)OCCCCCCCCCCCCCCCC)[N+](C)(C)CCOC(C)=O | 19.1 µM (inactive) | 11.4 µM (inactive) | 10.9 µM (inactive) | 22.1 µM | 15.9 µM (inactive) | 15.8 µM (inactive) | 21.2 µM (inactive) | 3.92 µM (inactive) | 21 µM (inactive) | 12 µM (inactive) | 13.4 µM (inactive) | 20.5 µM (inactive) | 23.6 µM (inactive) | 14.2 µM (inactive) | 17.9 µM (inactive) | 20.1 µM (inactive) |  |  |  | 
CC1(C)CCC(Sc2ccccc2)O1 (configuration not stated) | > 100 µM (inactive) | > 100 µM (inactive) | > 100 µM (inactive) | > 100 µM | > 100 µM (inactive) | > 100 µM (inactive) |  | > 100 µM (inactive) | > 100 µM (inactive) | > 100 µM (inactive) | > 100 µM (inactive) | > 100 µM (inactive) | > 100 µM (inactive) | > 100 µM (inactive) | > 100 µM (inactive) | > 100 µM (inactive) | > 100 µM (inactive) |  |  | 
CCCCC1(OC(=O)CCC(=O)O)CCC2(CCC(C)C(C/C=C(C)/C=C/C(O)C(C)/C=C/C(=O)O)O2)OC1CC/C(C)=C/C(=O)O (configuration not stated) | 1.55 µM (inactive) | 3.33 µM (inactive) | 2.09 µM (inactive) | 3.45 µM | 2.1 µM (inactive) | 16.6 µM (inactive) | 7.73 µM (inactive) | 1.47 µM (inactive) | 5.2 µM (inactive) | 4.35 µM (inactive) | 3.11 µM (inactive) | 12.2 µM (inactive) | 3.26 µM (inactive) | 3.25 µM (inactive) | 2.51 µM (inactive) | 1.71 µM (inactive) | 3.15 µM (inactive) |  |  | 
Nc1ccccc1N |  | > 100 µM (inactive) | > 100 µM (inactive) | > 100 µM | > 100 µM (inactive) | > 100 µM (inactive) | > 100 µM (inactive) | > 100 µM (inactive) |  | > 100 µM (inactive) | > 100 µM (inactive) | > 100 µM (inactive) | > 100 µM (inactive) | > 100 µM (inactive) | > 100 µM (inactive) | > 100 µM (inactive) | 32 µM (inactive) |  |  | 
CCSC1(SCC)CC(Cc2ccc(OC)cc2)N(/C=N/C(C)(C)C)C1 (configuration not stated) | 20.2 µM (inactive) | 17 µM (inactive) | 56.9 µM (inactive) | 25.8 µM | 29.7 µM (inactive) | 21 µM (inactive) | 20.1 µM (inactive) | 37.8 µM (inactive) | 27 µM (inactive) | 19.1 µM (inactive) | 38.7 µM (inactive) | 36.9 µM (inactive) | 33.6 µM (inactive) | 33.5 µM (inactive) | 61 µM (inactive) | 33.1 µM (inactive) |  |  |  | 
CCC(C)c1cccc(C)c1NC(=O)C(=O)Cc1nc2ccccc2s1 (configuration not stated) | > 100 µM (inactive) | > 100 µM (inactive) | > 100 µM (inactive) | > 100 µM | > 100 µM (inactive) | > 100 µM (inactive) | > 100 µM (inactive) | > 100 µM (inactive) | > 100 µM (inactive) | > 100 µM (inactive) | > 100 µM (inactive) | > 100 µM (inactive) | > 100 µM (inactive) | > 100 µM (inactive) | > 100 µM (inactive) | > 100 µM (inactive) | > 100 µM (inactive) |  |  | 
